Values joined by “and” are separate entries in the source; they are usually repeats but may differ in a detail not shown here. Equal entries are not always repeated. Structures can show the parent of a compound that is named as a salt.
Biological target: T1, Human ATX protein (Homo sapiens, UniProt Q13822)
T1 construct: made in house
Experiment: ATX biochemical assay (FRET, FS-3 substrate)
Details: FRET assay, FS-3 2 μM, ATX 1.0 μg/mL, 30 minutes preincubation, 2 hours reaction at room temperature; read-out: IC50
Source text: ATX (Autotaxin) is a 125 KDa glycoprotein with lysophospholipase D (LPLD) activity that generates the bioactive lipid lysophosphatidic acid (LPA) from lysophosphatidylcholine (LPC). The ATX biochemical assay utilizes a FRET (fluorescence resonance energy transfer) technology platform. The fluorescence signal of FRET substrate FS-3 is quenched due to intra-molecular FRET of a fluorophore to a non-fluorescing quencher (Ferguson, C. G., et al., Org Lett. 2006 May 11; 8(10): 2023-2026, which is incorporated by reference in its entirety). ATX catalyzes the hydrolysis of the substrate which separates the dabsyl quencher from the fluorescein reporter, which becomes fluorescent. The reaction is monitored by a SpectraMax M5 (Molecular Devices, Sunnyvale, Calif.) with at excitation wavelength 485 nm and emission wavelength […].
Fatty acid free-BSA (Sigma A8806): 10 mg/mL in H2O, stored at 4° C.
2×ATX assay buffer: 100 mM Tris, 280 mM NaCl, 10 mM KCl, 2 mM CaCl2, 2 mM MgCl2, pH 7.4.
Human ATX protein: expressed and purified in house. Stored at −80° C.
Substrate FS-3 (Echelon, L-2000): 100 μg in 77.74 μL H2O (1 mM stock), stored at −20° C.
384-well flat bottom plates—Corning #3575.
Compound dilution—All compounds were provided at 10 mM in 100% DMSO. In the first well, 2 μL of 10 mM compound was added to 78 μL of DMSO (1:40 dilution). In subsequent wells 3-fold dilution (total 10 dilutions) were performed.
1×ATX assay buffer was made up with a final concentration of 1 mg/mL fatty acid free-BSA using 2×ATX assay buffer, 10 mg/ml fatty acid free-BSA and ddH2O.
[…]. The final concentration of ATX in the reaction as 1.0 μg/mL.
2 μL per well of compounds was transferred to provide the desired concentration. The plate was centrifuged, then incubated at room temperature for 30 minutes on the shaker.
FS-3 was diluted with 1×ATX assay buffer to a concentration of FS-3 of 10 μM (5×). Then, 10 μL was added per well to the assay plate. The final concentration of FS-3 in the reaction was 2 μM. The plate was centrifuged. The plate was kept shaking at room temperature for 2 hours. Because FS-3 substrate is light sensitive, plates were kept covered and protected from light.
Fluorescence was measured using SpectraMax M5 (excitation at 485 nm/emission at 538 nm, top read).

| IC50 | SMILES |
| --- | --- |
| ≤ 100 nM | NC(=O)[C@H]1CC[C@H](CC(=O)N2CCc3c(C(F)(F)F)nn(Cc4ccc(F)cc4)c3C2)CC1 [Example 20-2, trans-4-(2-(1-(4-Fluorobenzyl)-3-(trifluoromethyl)-4,5-dihydro-1H-pyrazolo[3,4-c]pyridin-6(7H)-yl)-2-oxoethyl)cyclohexanecarboxamide] |
| ≤ 100 nM | CN1CCC(CC(=O)N2CCc3c(C(F)(F)F)nn(Cc4ccc(Cl)cc4F)c3C2)CC1(C)C (stereo not drawn) [Example 10-3, 1-(1-(4-Chloro-2-fluorobenzyl)-3-(trifluoromethyl)-4,5-dihydro-1H-pyrazolo[3,4-c]pyridin-6(7H)-yl)-2-(1,2,2-trimethylpiperidin-4-yl)ethanone TFA salt] |
| ≤ 100 nM | O=C(O)C12CCC(C(=O)N3CCc4c(C(F)(F)F)nn(Cc5ccc(F)cc5)c4C3)(CC1)C2 [Example 5-50, 4-(1-(4-Fluorobenzyl)-3-(trifluoromethyl)-4,5,6,7-tetrahydro-1H-pyrazolo[3,4-c]pyridine-6-carbonyl)bicyclo[2.2.1]heptane-1-carboxylic acid] |
| ≤ 100 nM | CC(C)N1CCC(CC(=O)N2CCc3c(C(F)(F)F)nn(Cc4ccc(Cl)cc4F)c3C2)CC1 [Example 11-2, 1-(1-(4-Chloro-2-fluorobenzyl)-3-(trifluoromethyl)-4,5-dihydro-1H-pyrazolo[3,4-c]pyridin-6(7H)-yl)-2-(1-isopropylpiperidin-4-yl)ethanone HCl salt] |
| ≤ 100 nM | O=C(C[C@H]1CC[C@H](C(=O)O)CC1)N1CCc2c(CO)nn(Cc3ccc(F)cc3)c2C1 [Example 5-45, trans-4-(2-(1-(4-Fluorobenzyl)-3-(hydroxymethyl)-4,5-dihydro-1H-pyrazolo[3,4-c]pyridin-6(7H)-yl)-2-oxoethyl)cyclohexanecarboxylic acid] |
| > 10000 nM | O=C(O)CCN1CCC(C(=O)N2CCc3c(C(F)(F)F)nn(Cc4ccc(Cl)cc4F)c3C2)C1 (stereo not drawn) [Example 15-3, 3-(3-(1-(4-chloro-2-fluorobenzyl)-3-(trifluoromethyl)-4,5,6,7-tetrahydro-1H-pyrazolo[3,4-c]pyridine-6-carbonyl)pyrrolidin-1-yl)propanoic acid] |
| ≤ 100 nM | O=C(O)CC1CCN(CC(=O)N2CCc3c(C(F)(F)F)nn(Cc4ccc(Cl)cc4F)c3C2)CC1 [Example 13-13, 2-(1-(2-(1-(4-Chloro-2-fluorobenzyl)-3-(trifluoromethyl)-4,5-dihydro-1H-pyrazolo[3,4-c]pyridin-6(7H)-yl)-2-oxoethyl)piperidin-4-yl)acetic acid TFA salt] |
| ≤ 100 nM | O=C(O)[C@H]1CC[C@H](C(=O)N2CCc3c(C(F)(F)F)nn(Cc4ccc(F)cc4)c3C2)CC1 [Example 7-17, trans-4-(1-(4-Fluorobenzyl)-3-(trifluoromethyl)-4,5,6,7-tetrahydro-1H-pyrazolo[3,4-c]pyridine-6-carbonyl)cyclohexanecarboxylic acid] |
| ≤ 100 nM | O=C(O)C[C@H]1CC[C@H](CC(=O)N2CCc3c(C(F)(F)F)nn(Cc4ccc(F)cc4)c3C2)CC1 [Example 5-48, 2-(trans-4-(2-(1-(4-Fluorobenzyl)-3-(trifluoromethyl)-4,5-dihydro-1H-pyrazolo[3,4-c]pyridin-6(7H)-yl)-2-oxoethyl)cyclohexyl)acetic acid] |
| ≤ 100 nM | Cc1ccc(Cn2nc(C(F)(F)F)c3c2CN(C(=O)C[C@H]2CC[C@H](C(=O)O)CC2)CC3)cc1 [Example 5-14, trans-4-(2-(1-(4-Methylbenzyl)-3-(trifluoromethyl)-4,5-dihydro-1H-pyrazolo[3,4-c]pyridin-6(7H)-yl)-2-oxoethyl)cyclohexanecarboxylic acid] |
| ≤ 100 nM | O=C(C[C@H]1CC[C@H](C(=O)O)CC1)N1CCc2c(C(F)(F)F)nn(Cc3ccc(Cl)cc3Cl)c2C1 [Example 7-7, trans-4-(2-(1-(2,4-Dichlorobenzyl)-3-(trifluoromethyl)-4,5-dihydro-1H-pyrazolo[3,4-c]pyridin-6(7H)-yl)-2-oxoethyl)cyclohexanecarboxylic acid] |
| 250 to 500 nM | CCOC(=O)[C@H]1CC[C@H](CC(=O)N2CCc3c(C(F)(F)F)nn(C4CCCCC4)c3C2)CC1 [Example 1-24, trans-Ethyl 4-(2-(1-cyclohexyl-3-(trifluoromethyl)-4,5-dihydro-1H-pyrazolo[3,4-c]pyridin-6(7H)-yl)-2-oxoethyl)cyclohexanecarboxylate] |
| ≤ 100 nM | CCOC(=O)C1CCCN(CC(=O)N2CCc3c(C(F)(F)F)nn(Cc4ccc(Cl)cc4F)c3C2)C1 (stereo not drawn) [Example 12-3, Ethyl 1-(2-(1-(4-chloro-2-fluorobenzyl)-3-(trifluoromethyl)-4,5-dihydro-1H-pyrazolo[3,4-c]pyridin-6(7H)-yl)-2-oxoethyl)piperidine-3-carboxylate] |
| > 500 nM and ≤ 10000 nM | CCOC(=O)c1nn(Cc2ccc(F)cc2)c2c1CCN(C(=O)C[C@H]1CC[C@H](C(=O)OCC)CC1)C2 [Example 1-40, Ethyl 6-(2-(trans-4-(ethoxycarbonyl)cyclohexyl)acetyl)-1-(4-fluorobenzyl)-4,5,6,7-tetrahydro-1H-pyrazolo[3,4-c]pyridine-3-carboxylate] |
| ≤ 100 nM | O=C(O)C12CCC(C(=O)N3CCc4c(C(F)(F)F)nn(Cc5ccc(F)cc5)c4C3)(CC1)CC2 [Example 5-11, 4-(1-(4-Fluorobenzyl)-3-(trifluoromethyl)-4,5,6,7-tetrahydro-1H-pyrazolo[3,4-c]pyridine-6-carbonyl)bicyclo[2.2.2]octane-1-carboxylic acid] |
| 100 to 250 nM | O=C(C[C@H]1CC[C@H](C(=O)O)CC1)N1CCc2c(C(F)(F)F)nn(CCc3ccccc3)c2C1 [Example 5-16, trans-4-(2-Oxo-2-(1-phenethyl-3-(trifluoromethyl)-4,5-dihydro-1H-pyrazolo[3,4-c]pyridin-6(7H)-yl)ethyl)cyclohexanecarboxylic acid] |
| ≤ 100 nM | CCOC(=O)[C@H]1CC[C@H](CC(=O)N2CCc3c(C(F)(F)F)nn(Cc4cncs4)c3C2)CC1 [Example 1-47, trans-Ethyl 4-(2-oxo-2-(1-(thiazol-5-ylmethyl)-3-(trifluoromethyl)-4,5-dihydro-1H-pyrazolo[3,4-c]pyridin-6(7H)-yl)ethyl)cyclohexanecarboxylate] |
| ≤ 100 nM | O=C(CN1CCC(C(F)(F)F)CC1)N1CCc2c(C(F)(F)F)nn(Cc3ccc(Cl)cc3F)c2C1 [Example 12-8, 1-(1-(4-Chloro-2-fluorobenzyl)-3-(trifluoromethyl)-4,5-dihydro-1H-pyrazolo[3,4-c]pyridin-6(7H)-yl)-2-(4-(trifluoromethyl)piperidin-1-yl)ethanone] |
| ≤ 100 nM | O=C(CN[C@H]1CC[C@@H](C(=O)O)CC1)N1CCc2c(C(F)(F)F)nn(Cc3ccc(F)cc3)c2C1 [Example 13-30, cis-4-(2-(1-(4-Fluorobenzyl)-3-(trifluoromethyl)-4,5-dihydro-1H-pyrazolo[3,4-c]pyridin-6(7H)-yl)-2-oxoethylamino)cyclohexanecarboxylic acid TFA salt] |
| ≤ 100 nM | CCOC(=O)[C@H]1CC[C@H](CC(=O)N2CCc3c(C(F)F)nn(Cc4ccc(F)cc4)c3C2)CC1 [Example 1-38, trans-Ethyl 4-(2-(3-(difluoromethyl)-1-(4-fluorobenzyl)-4,5-dihydro-1H-pyrazolo[3,4-c]pyridin-6(7H)-yl)-2-oxoethyl)cyclohexanecarboxylate] |
| ≤ 100 nM | CCOC(=O)[C@H]1CC[C@H](CC(=O)N2CCc3c(C#N)nn(Cc4ccc(F)cc4)c3C2)CC1 [Example 1-43, trans-Ethyl 4-(2-(3-cyano-1-(4-fluorobenzyl)-4,5-dihydro-1H-pyrazolo[3,4-c]pyridin-6(7H)-yl)-2-oxoethyl)cyclohexanecarboxylate] |
| ≤ 100 nM | O=C(CC1CCN(c2ncccn2)CC1)N1CCc2c(C(F)(F)F)nn(Cc3ccc(F)cc3)c2C1 [Example 18-1, 1-(1-(4-Fluorobenzyl)-3-(trifluoromethyl)-4,5-dihydro-1H-pyrazolo[3,4-c]pyridin-6(7H)-yl)-2-(1-(pyrimidin-2-yl)piperidin-4-yl)ethanone TFA salt] |
| ≤ 100 nM | O=C(C[C@H]1CC[C@H](C(=O)O)CC1)N1CCc2c(C(F)(F)F)nn(Cc3ccccc3)c2C1 [Example 7-11, trans-4-(2-(1-Benzyl-3-(trifluoromethyl)-4,5-dihydro-1H-pyrazolo[3,4-c]pyridin-6(7H)-yl)-2-oxoethyl)cyclohexanecarboxylic acid] |
| ≤ 100 nM | CCOC(=O)C1CCC(CC(=O)N2CCc3cnn(Cc4ccc(F)cc4)c3C2)CC1 (stereo not drawn) [Example 1-17, Ethyl 4-(2-(1-(4-fluorobenzyl)-4,5-dihydro-1H-pyrazolo[3,4-c]pyridin-6(7H)-yl)-2-oxoethyl)cyclohexanecarboxylate] |
